# System: inguinal fat
# Assay: Irisin injection in mice: Ucp1/Dio2 mRNA and Ucp1 protein in inguinal fat
# Type: in vivo
# Conditions: mice, co-injection with irisin
# Description: FIG. 18A-FIG. 18B show mRNA and protein levels of indicated genes. 1 mg/kg irisin was injected to 8-week old mice every other day for 6 days. mRNA levels of indicated genes in inguinal fat were analyzed by qRT-PCR. Cyclophilin was used for housekeeping gene (FIG. 18A). Inguinal fats were also lysed to detect the indicated protein level using immunoblot analysis (FIG. 18B). FIGS. 18C and 18D show mRNA and protein levels of indicated genes. Mice were treated and analyzed as (A-B) with addition of coinjection of […] control RGD peptide or cyclo RGDyK (cRGDyK). mRNA levels of indicated genes in inguinal fat were analyzed by qRT-PCR. Cyclophilin was used for house-keeping gene (FIG. 18C). Inguinal fats were also lysed to detect the indicated protein level using immunoblot analysis (FIG. 18D). […] Ucp1 mRNA level was analyzed by qRT-PCR. […]
# RNA was extracted from cultured cells or frozen tissues using TRIzol® (Thermo Fischer Scientific) and purified with RNeasy® mini kit (QIAGEN 74106). […] To perform qRT-PCR analysis, normalized RNA was reverse transcribed using a high-capacity cDNA reverse-transcription kit (Applied Biosystems™). cDNA was analyzed by qRT-PCR with indicated primers. Relative mRNA levels were calculated using the comparative CT method and normalized to cyclophilin mRNA. […]
compound,measurement,value
N=C(N)NCCC[C@@H]1NC(=O)[C@H](CCCCN)NC(=O)[C@@H](Cc2ccc(O)cc2)NC(=O)[C@H](CC(=O)O)NC(=O)CNC1=O [cyclo RGDyK],effect on irisin induction of the protein level of Ucp1,blocked
same,effect on irisin-induced gene expression of Ucp1 and Dio2,blocked

# Reference: US20210063414A1, “METHODS FOR PREVENTING AND/OR TREATING BONE LOSS CONDITIONS BY MODULATING IRISIN” (Dana-Farber Cancer Institute, Inc., priority 2018, published 2021)
